# In patent publication US9802880B2, “Cannabigerol derivatives” (VIVACELL BIOTECHNOLOGY ESPAÑA S.L., priority 2014, dated 2017):
# Key:
# [1] = system: EAE mice; experiment: Experimental autoimmune encephalomyelitis (EAE), clinical score; format: in vivo, C57BL/6 mice
# Description: C57BL/6 mice were immunized with MOG35-55 and their clinical score evaluated daily. Mice were treated daily with compound (III) (10 mg/kg) on day 6 post-immunization and the 21 following days. […] Values are expressed as means±SEM for 10 animals per group.
# C57BL/6 mice were immunized with MOG35-55 and their clinical score evaluated daily. Mice were treated daily with compound (XII) (5 mg/kg) on day 6 post-immunization and the 21 following days. […] Values are expressed as means±SEM for 6 animals per group.
# EAE was induced in female C57BL/6 mice at 6-8 weeks of age by subcutaneous immunization with myelin oligodendrocyte glycoprotein polypeptide (MOG35-55) (300 μg) and 200 μg of Mycobacterium tuberculosis (H37Ra Difco, Franklin Lakes, N.J., USA) in a 1:1 mix with […] Freund's adjuvant (CFA, Sigma-Aldrich, Madrid, Spain). On the same day and 2 days later, mice were injected intraperitoneally (ip) with 200 ng of pertussis toxin (Sigma-Aldrich, Madrid, Spain) in 0.1 ml PBS. […] Treatment started at day 6 post-immunization (p.i.) and consisted in daily injections of compounds III (FIG. 6) and XII (FIG. 8) at the indicated doses or of the vehicle alone (DMSO/PBS) for the following 21 days. The mice were examined daily for clinical signs of EAE and disease scores were measured as follows: 0, no disease; 1, limp tail; 2, limp tail and hind limb weakness; 3, hind limb paralysis; 4, hind limb and front limb paralysis; 5, moribund and death. All animals were sacrificed 28 days (p.i.) for further analysis. Once sacrificed, animals were dissected and their spinal cords were rapidly removed and quickly frozen in RNAlater (Sigma-Aldric, Germany).
# [2] = system: N2a cells; experiment: Neuroprotection assay, glutamate-induced excitotoxicity in N2a cells; format: cell-based; conditions: 1 h pre-incubation, then 5 mM glutamate 24 h, FIG. 5
# Description: N2a cells were pre-incubated for 1 h with compounds (II) to (V) and (XII) at the indicated concentrations. Then, cells were treated for 24 h with 5 mM glutamate to induce excitotoxicity, or cytotoxicity in neuronal cells induced by neurotransmitters. Cell viability was quantified by MTT assay. […] Control was set as 100% and data were referred to that value.
# Cultured N2A cells were pre-incubated with the compounds II, III, IV, V and XII at the indicated concentrations for 1 h and then treated with 5 mM glutamate to induce excitotoxicity during 24 h (FIG. 5). Cytotoxicity was determined by the MTT method as described in example 3. Results are shown as mean±S.D. from at least three independent experiments, and expressed as percentage of cell viability against the control sample (−). Control was set as 100% and data were referred to that value.
# [3] = system: PPARg; experiment: PPARg transactivation assay in HEK-293 cells (GAL4-PPARγ / GAL4-luc); conditions: HEK-293 cells, 6 h treatment, FIG. 1
# [4] = system: 3NP-lesioned mice; experiment: Huntington's disease 3NP model, behavioral score; format: in vivo, C57BL/6 mice; conditions: 10 mg/kg i.p., four injections, FIG. 9
# Description: Mice were subjected to behavioral tests for determining their neurological status after the treatment with compounds I (10 mg/kg) (A), III (10 mg/kg) (B) and XII (10 mg/kg) (C). Hind limb clasping, Locomotor activity, Hind limb dystonia and Truncal Dystonia were rated from 0 to 2 based on severity: a score of 0 typically indicates normal function and 2 seriously affected. Values are expressed as means±SEM for 8 animals per group.
# Lesions of the striatum were induced with 3-NP in adult (16 week old; 30 g) male C57BL/6 mice (Harlan Ibérica, Barcelona, Spain). To this end, mice were subjected to seven intraperitoneal (i.p.) injections of 3NP (one injection each 12 hours) at a dose of 50 mg/kg (prepared in phosphate-buffered saline) for 3 days. These animals and their respective non-lesioned controls were used for pharmacological studies with compounds CBG-Q (compound I) and with compounds III and XII (FIG. 9). At least 6-8 animals were used per experimental group. Treatments consisted of four i.p. injections of the compounds at the indicated doses (one injection each 24 hours), or vehicle (DMSO 0.2%, BSA 5% in PBS) 30 min before the injections of 3NP. All animals were euthanized 12 hours after the last 3NP injection. Once euthanized, animals were dissected and their brains were rapidly removed. The right hemisphere was used to dissect the striatum, which was quickly frozen in RNAlater (Sigma-Aldrich, Germany) to analyzed inflammatory markers were by Real Time PCR. The left hemisphere was fixed in fresh 4% paraformaldehyde (in 0.1M phosphate buffered-saline) for 48 hours at 4° C. and embedded in paraffin wax for histological analysis. Mice were subjected to behavioral tests for determining their neurological status. We evaluated the general locomotor activity, the hindlimb clasping and dystonia, and the truncal dystonia. All behavioral tests were conducted prior to drug injections to avoid acute effects of the compounds under investigation.
# [5] = system: Ccl2, iNOs, TNFα, IFNg, IL-1b and IL-17; experiment: EAE, pro-inflammatory gene expression in spinal cord (real-time PCR); format: in vivo, C57BL/6 mice; conditions: EAE mice, 10 mg/kg, vs EAE+vehicle, FIG. 7
# Description: Gene expression of inflammatory markers including CCL2, IFNγ, INOS, TNFα, IL-1β and IL-17 in the spinal cord was down regulated in EAE+compound (III) (10 mg/kg) group compared with EAE+Vehicle mice. Expression levels were calculated using the 2^−ΔΔct method.
# EAE was induced in female C57BL/6 mice at 6-8 weeks of age by subcutaneous immunization with myelin oligodendrocyte glycoprotein polypeptide (MOG35-55) (300 μg) and 200 μg of Mycobacterium tuberculosis (H37Ra Difco, Franklin Lakes, N.J., USA) in a 1:1 mix with […] Freund's adjuvant (CFA, Sigma-Aldrich, Madrid, Spain). […] The mice were examined daily for clinical signs of EAE and disease scores were measured as follows: 0, no disease; 1, limp tail; 2, limp tail and hind limb weakness; 3, hind limb paralysis; 4, hind limb and front limb paralysis; 5, moribund and death. […]
# Total RNA was isolated from striata (3NP model) or spinal cord (EAE model) using RNeasy Lipid Tissue Mini Kit (Qiagen, GmbH). The total amount of RNA extracted was quantitated by spectrometry at 260 nm and its purity from the ratio between the absorbance values at 260 and 280 nm. […] The iQ™ SYBR Green Supermix (Bio-Rad) was used to quantify mRNA levels for COX-2, TNF-α, IL-6, IL-17, IL-1β, IFN-γ, CCL-2 or iNOS depending on disease's model. […] Expression levels were calculated using the 2^−ΔΔct method.
structure (smiles),measurement,setting,value
"CCCCCC1=C(NCC)C(=O)C(C/C=C(\C)CCC=C(C)C)=C(O)C1=O [Compound III, 6-(3,7-dimethyl-octa-2,6-dienyl)-5-hydroxy-3-pentyl-2-ethylamino-[1,4]benzoquinone]",clinical manifestations of EAE,"[1]; 10 mg/kg daily from day 6 post-immunization for 21 days, FIG. 6",clearly attenuated
same,EAE clinical score throughout the experiment (day 6-day 28),"[1]; 10 mg/kg daily, score scale 0-5, vehicle-treated mice reached 2.5",< 1.3
same,day on which the disease peaked,"[1]; 10 mg/kg daily, vehicle-treated mice peaked by day 16",17 day post-injection
same,"protection from glutamate-induced cytotoxicity (cell viability, MTT)",[2],protect neuronal cells from glutamate-induced apoptosis
same,PPARg activation (fold) compared with CBG-Q,[3],higher efficiency than CBG-Q
same,"clinical symptoms induced by 3-NP intoxication (hind limb clasping, locomotor activity, hind limb dystonia, truncal dystonia)",[4],clearly alleviates such symptomatology
same,"expression of proinflammatory genes Ccl2, iNOs, TNFα, IFNg, IL-1b and IL-17 in the spinal cord",[5],significant decrease
